Experimental data taken from paper PMC10313368 (The Journal of Clinical Investigation, 2023).
Several values for one entry are separate records, joined by “and”; a condition that tells them apart may be missing. Identical values can stand only once.

Key:
adult mice = conditions: i.p. 5 consecutive days, doses up to 80 mg/kg; cited from earlier work
C57BL/6 mice = assay: Flash scotopic ERG after a single intraocular injection; format: in vivo, mouse; conditions: for A wave / B wave: in µV (unit assumed)
Description: Intraocular injections. Intravitreal injections were performed with a PLI-100A Pico-liter Microinjector (Warner Instruments, Harvard Bioscience) using pulled-glass micropipettes. Each micropipette was calibrated to deliver a 1 μl volume on depression of a foot switch. […]
Flash scotopic ERGs. All procedures were performed under dim red light. Mice were dark adapted overnight, anesthetized with ketamine (50 mg/kg) and xylazine (5mg/kg) and pupils were dilated with a topical drop of tropicamide (1%). Scotopic ERG responses were measured using the Celeris ERG stimulator (Diagnosys, Lowell, MA) at flash intensities of 0.025, 0.25, 2.5, 7.96, and 79.06 cd/s/m2. ERGs were measured simultaneously from both eyes with a ground electrode placed into the forehead between the eyes and a reference electrode into the hip. […]

[1] = system: differentially expressed genes (DEGs) in OIR mice; assay: Bulk RNA-Seq of neurosensory retina of OIR mice; format: in vivo, mouse
Source text: Bulk RNAseq. P17 mouse pups from non-OIR (control), OIR injected with DMSO (vehicle) at P12 […]
enucleated, and their retinas separated from the RPE/choroid. Total RNA was isolated using miRNeasy mini kit (QIAGEN). RNA was quantified using Nanodrop (ND-1000 spectrophotometer; Thermo Scientific). The RNA samples were sequenced by Novogene […]
Raw data (fastq files), data quality control, and genome alignment were generated by Novogene company. DESeq2 (6) was used for differentially expressed genes (DEG) analysis. Genes with adjusted P < 0.05 and log2 fold change > 1 were identified as DEGs. Normalized counts were used to produce clustering heatmaps and “complete” was the default method in the clustering analysis.
Gene Ontology (GO) analysis (biological process) was done using DAVID Bioinformatics Resources (7, 8). FDR < 0.05 was used as the threshold for enriched biological process. […]

BL/6 mice = assay: Fundus photos and fluorescein angiography after systemic (i.p.) administration; format: in vivo, mouse; conditions: adult mice, 1 month following 5 consecutive i.p. injections of 40 or 80 mg/kg
Description: protocol, the sections were rinsed three times with PBS for 2 minutes. Images were captured at high magnification (20X) with Zeiss fluorescent microscope.
Flash scotopic ERGs. All procedures were performed under dim red light. Mice were dark adapted overnight, anesthetized with ketamine (50 mg/kg) and xylazine (5mg/kg) and pupils were dilated with a topical drop of tropicamide (1%). Scotopic ERG responses were measured using the Celeris ERG stimulator (Diagnosys, Lowell, MA) at flash intensities of 0.025, 0.25, 2.5, 7.96, and 79.06 cd/s/m2. ERGs were measured simultaneously from both eyes with a ground electrode placed into the forehead between the eyes and a reference electrode into the hip.
Fluorescein angiography in mice. […]
vascular permeability, experimental animals were treated with 5 consecutive daily IP injections […]
On day 30, mice were anesthetized using intramuscular injection with ketamine (50 mg/kg) and xylazine (5mg/kg). […] Fluorescein leakage manifests as indistinct vascular borders progressing to diffusely hazy fluorescence. Fluorescein leakage was compared between different groups by quantifying the fluorescence intensities collected after 1-, 2-, and 3-minutes following fluorescein injection using the ImageJ software.

[2] = OIR mice P17, single intraocular 32-134D 70 ng/μL at P12

## Brc1ccc2c(-c3csc(-c4c[nH]c5c(Br)cccc45)n3)c[nH]c2c1 [32-134D, 4-(6-bromo-1H-indol-3-yl)-2-(7-bromo-1H-indol-3-yl)thiazole]
Adult mice
  systemic tolerability (appearance, behavior, body weight, hemoglobin, hematocrit): well tolerated
C57BL/6 mice; 32-134D 70, 140, 210, 350 ng single intraocular injection, up to 5 weeks
  retinal toxicity on ERG: did not observe any evidence of retina toxicity
C57BL/6 mice; DAY7, flash 0.25, 140NG
  A wave: 84.49 and 88.87
C57BL/6 mice; DAY7, flash 2.5, 140NG
  A wave: 138.4 and 109.3
C57BL/6 mice; DAY7, flash 7.96, 140NG
  A wave: 181.6 and 123.7
  B wave: 337.9
C57BL/6 mice; DAY7, flash 79.06, 140NG
  B wave: 327.7
C57BL/6 mice; DAY14, flash 0.025, 70NG
  B wave: 149.2 and 168.6 and 209.2 and 152.4 and 190.2 and 184.53 and 268.4
C57BL/6 mice; DAY14, flash 0.025, 140NG
  B wave: 158.1
C57BL/6 mice; DAY14, flash 0.25, 70NG
  A wave: 69.71 and 75.03 and 99.56 and 75.32 and 55.14 and 80.45 and 95.29
  B wave: 204.5 and 293.7 and 273.9 and 206.4 and 256.8 and 214.7 and 313
C57BL/6 mice; DAY14, flash 0.25, 140NG
  A wave: 76.62 and 123.2
  B wave: 209.6
C57BL/6 mice; DAY14, flash 2.5, 70NG
  A wave: 116.4 and 108.2 and 136.4 and 117.2 and 152.87 and 100.6 and 158.9
  B wave: 215 and 216 and 281.6 and 293.7 and 254.6 and 294.3 and 388.9
C57BL/6 mice; DAY14, flash 2.5, 140NG
  A wave: 128 and 175.3
  B wave: 257.2
C57BL/6 mice; DAY14, flash 7.96, 70NG
  A wave: 135.7 and 102.5 and 159.1 and 157 and 172.6 and 118.4 and 175.8
  B wave: 256.6 and 296.2 and 276.2 and 330.1 and 232.5 and 333.4 and 391
C57BL/6 mice; DAY14, flash 7.96, 140NG
  A wave: 138.7 and 208.7
  B wave: 262.8
C57BL/6 mice; DAY14, flash 79.06, 70NG
  A wave: 161.6 and 123.9 and 177.3 and 180.4 and 182.2 and 135.3 and 174.3
  B wave: 232.9 and 293.2 and 237.9 and 340.7 and 256.5 and 324.6 and 372.7
C57BL/6 mice; DAY14, flash 79.06, 140NG
  A wave: 168.4 and 191
  B wave: 300.7
C57BL/6 mice; DAY21, flash 0.025, 140NG
  B wave: 129.1
C57BL/6 mice; DAY21, flash 0.25, 70NG
  A wave: 76.13 and 75.12 and 97.06 and 99.13 and 63.13 and 91.99 and 97.31
  B wave: 236.1 and 170.7 and 170.8 and 248.9 and 189.8 and 286.3 and 297.9
C57BL/6 mice; DAY21, flash 0.25, 140NG
  B wave: 175.7
C57BL/6 mice; DAY21, flash 2.5, 70NG
  A wave: 112.6 and 110.6 and 152.6 and 169.8 and 108.4 and 159.7 and 165.1
  B wave: 298.7 and 211.6 and 203 and 296 and 196.2 and 332.2 and 364.3
C57BL/6 mice; DAY21, flash 7.96, 70NG
  A wave: 105.9 and 120.3 and 162.9 and 176.2 and 125.7 and 175.1 and 172
  B wave: 315.1 and 232.4 and 223 and 328.4 and 215.9 and 350.1 and 374.6
C57BL/6 mice; DAY21, flash 7.96, 140NG
  A wave: 126.8 and 195.8
C57BL/6 mice; DAY21, flash 79.06, 70NG
  A wave: 108.1 and 130.3 and 166.3 and 180.2 and 139.8 and 172.8 and 188
  B wave: 286.8 and 226.3 and 206.8 and 273.5 and 273.2 and 297.6 and 298.6
C57BL/6 mice; DAY21, flash 79.06, 140NG
  A wave: 148.7 and 231
C57BL/6 mice; DAY28, flash 2.5, 140NG
  A wave: 148.8 and 128.1
C57BL/6 mice; DAY28, flash 7.96, 70NG
  A wave: 118.7 and 202.6 and 114.3 and 192.2 and 119.5 and 102.4 and 173.1
C57BL/6 mice; DAY28, flash 7.96, 140NG
  A wave: 168.7
C57BL/6 mice; DAY28, flash 79.06, 70NG
  A wave: 125.3 and 187.6 and 118.9 and 161.8 and 121.28 and 110 and 160.6
C57BL/6 mice; DAY28, flash 79.06, 140NG
  A wave: 153
C57BL/6 mice; DAY35, flash 2.5, 140NG
  A wave: 66
C57BL/6 mice; DAY35, flash 79.06, 70NG
  A wave: 74.06 and 95.89 and 102 and 95.42 and 92.65 and 81.18 and 82.72
  B wave: 112.4 and 198.3 and 140.3 and 150.2 and 167.5 and 220.3 and 163
[1]; [2]
  reduction in downregulated DEGs: 93%
  reduction in upregulated DEGs: 71%
[1]; OIR mice P17, single intraocular 32-134D 70 ng/μL at P12, 250 in untreated OIR
  upregulated DEGs compared with non-OIR (control) mice: 73
[1]; OIR mice P17, single intraocular 32-134D 70 ng/μL at P12, 768 in untreated OIR
  downregulated DEGs compared with non-OIR (control) mice: 52
[1]; OIR mice, 32-134D intraocular
  top 37 upregulated DEGs of 4 biological functions (inflammation, angiogenesis, hypoxia, vasculogenesis): normalization
BL/6 mice
  fundus and fluorescein angiogram: normal-appearing fundus without evidence of retinal vascular injury or leakage
